Structures can show the parent of a compound that is named as a salt.
Legend:
[1] = target: T1, Rat Kidney Medullary V2 Receptors (Rattus norvegicus, UniProt Q00788); assay: biochemical; assay type: binding
T1 construct: Medullary tissues from rat kidneys are dissected out; from tissue; host or cells: rat kidney medulla membranes
Procedure: Binding Assay to Rat Kidney Medullary V2 Receptors
Medullary tissues from rat kidneys are dissected out, cut into small pieces and soaked in a […] sodium chloride solution containing 1.0 mM EDTA with many changes of the liquid phase, until the solution is clear of blood. The tissue is homogenized in a 0.25M sucrose solution containing 1.0 mM EDTA and 0.1 mM PMSF using a Potter-Elvehjem homogenizer with a teflon pestle. The homogenate is filtered through several layers (4 layers) of cheese cloth. The filtrate is rehomogenized using a dounce homogenizer, with a tight fitting pestle. The final homogenate is centrifuged at 1500×g for 15 min. The nuclear pellet is discarded and the supernatant fluid recentrifuged at 40,000×g for 30 min. The resulting pellet formed contains a dark inner part with the exterior, slightly pink. The pink outer part is suspended in a small amount of 50.0 mM Tris.HCl buffer, pH 7.4. The protein content is determined by the Lowry's method (Lowry et al, J. Biol. Chem., 1953). The membrane suspension is stored at -70° C., in 50.0 mM Tris.HCl, containing 0.2% inactivated BSA and 0.1 mM PMSF in aliquots of 1.0 ml containing 10.0 mg protein per ml of suspension until use in subsequent binding experiments.
For binding experiments, the following is added in μl volume to wells of a 96 well format of a microtiter plate: 100.0 μl of 100.0 mM Tris.HCl buffer containing 0.2% heat inactivated BSA, 10.0 mM MgCl2 and a mixture of protease inhibitors: leupeptin, 1.0 mg %; aprotinin, 1.0 mg %; 1,10-phenanthroline, 2.0 mg %; trypsin inhibitor, 10.0 mg % and 0.1 mM PMSF, 20.0 μl of [^3 H] Arginine^8, vasopressin (S.A. 75.0 Ci/mmole) at 0.8 nM and the reaction initiated by the addition of 80.0 μl of tissue membranes (200.0 μg tissue protein). The plates are left undisturbed on the bench top for 120 min. to reach equilibrium. Non-specific binding is assessed in the presence of 1.0 μM of unlabeled ligand, added in 20 μl volume. For test compounds, these are solubilized in 50% dimethylsulfoxide (DMSO) and added in 20.0 μl volume to a final incubation volume of 200 μl. Upon completion of binding, the content of each well is filtered off, using a Brandel® cell Harvester (Gaithersburg, Md.). The radioactivity trapped on the filter disk by the ligand-receptor complex is assessed by liquid scintillation counting in a Packard LS Counter, with an efficiency of 65% for tritium. The data are analyzed for IC50 values by the LUNDON-2 program for competition (LUNDON SOFTWARE, Ohio).

oxytocin receptors = target: T2, oxytocin receptors (Rattus norvegicus, UniProt P70536); assay: Oxytocin Receptor Binding; settings: for IC50: rat uterine membranes, [3H]oxytocin
T2 sequence (P70536 1-388): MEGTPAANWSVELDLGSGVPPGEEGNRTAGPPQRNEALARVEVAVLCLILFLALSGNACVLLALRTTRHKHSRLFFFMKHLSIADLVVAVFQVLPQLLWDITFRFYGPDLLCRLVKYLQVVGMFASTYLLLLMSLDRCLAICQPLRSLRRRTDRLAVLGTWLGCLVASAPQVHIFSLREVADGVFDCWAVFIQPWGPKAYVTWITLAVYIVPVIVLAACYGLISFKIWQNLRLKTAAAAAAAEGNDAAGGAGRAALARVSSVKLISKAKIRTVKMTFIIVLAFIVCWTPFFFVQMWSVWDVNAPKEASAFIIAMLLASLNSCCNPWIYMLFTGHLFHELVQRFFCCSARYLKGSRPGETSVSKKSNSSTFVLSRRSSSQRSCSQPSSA
Procedure: Female Sprague-Dawley rats weighing approximately 200-250 g are injected intramuscularly (i.m.) with 0.3 mg/kg of body weight of diethylstilbestrol (DES). The rats are sacrificed 18 hours later under pentobarbital anesthesia. The uteri are dissected out, cleaned of fat and connective tissues and rinsed in 50 ml of normal saline. The tissue pooled from six rats is homogenized in 50 ml of 0.01 mM Tris.HCl, containing 0.5 mM dithiothreitol and 1.0 mM EDTA, adjusted to pH 7.4, using a polytron at setting 6 with three passes of 10 sec each. The homogenate is passed through two (2) layers of cheesecloth and the filtrate centrifuged at 1000×g for 10 min. The clear supernatant is removed and recentrifuged at 165,000×g for 30 min. The resulting pellet containing the oxytocin receptors is resuspended in 50.0 mM Tris.HCl containing 5.0 mM MgCl2 at pH 7.4, to give a protein concentration of 2.5 mg/ml of tissue suspension. This preparation is used in subsequent binding assays with [^3 H]Oxytocin.
Binding of 3,5-[^3 H]Oxytocin ([^3 H]OT) to its receptors is done in microtiter plates using [^3 H]OT, at various concentrations, in an assay buffer of 50.0 mM Tris.HCl, pH 7.4 and containing 5.0 mM MgCl2, and a mixture of protease inhibitors: BSA, 0.1 mg; aprotinin, 1.0 mg; 1,10-phenanthroline, 2.0 mg; trypsin, 10.0 mg; and PMSF, 0.3 mg per 100 ml of buffer solution. Non-specific binding is determined in the presence of 1.0 uM unlabeled OT. The binding reaction is terminated after 60 min., at 220° C., by rapid filtration through glass fiber filters using a Brandel® cell harvester (Bio-medical Research and Development Laboratories, Inc., Gaithersburg, Md.). Competition experiments are conducted at equilibrium using 1.0 nM [^3 H]OT and varying the concentration of the displacing agents. The concentrations of agent displacing 50% of [^3 H]OT at its sites (IC50) are calculated by a computer assisted LUNDON-2 program (LUNDON SOFTWARE INC., Ohio, USA).

Rat Hepatic V1 Receptors = Rat Hepatic V1 Receptors (Rattus norvegicus, UniProt P30560); assay: Binding Assay to Rat Hepatic V1 Receptors
Chain of Rat Hepatic V1 Receptors (P30560 whole entry): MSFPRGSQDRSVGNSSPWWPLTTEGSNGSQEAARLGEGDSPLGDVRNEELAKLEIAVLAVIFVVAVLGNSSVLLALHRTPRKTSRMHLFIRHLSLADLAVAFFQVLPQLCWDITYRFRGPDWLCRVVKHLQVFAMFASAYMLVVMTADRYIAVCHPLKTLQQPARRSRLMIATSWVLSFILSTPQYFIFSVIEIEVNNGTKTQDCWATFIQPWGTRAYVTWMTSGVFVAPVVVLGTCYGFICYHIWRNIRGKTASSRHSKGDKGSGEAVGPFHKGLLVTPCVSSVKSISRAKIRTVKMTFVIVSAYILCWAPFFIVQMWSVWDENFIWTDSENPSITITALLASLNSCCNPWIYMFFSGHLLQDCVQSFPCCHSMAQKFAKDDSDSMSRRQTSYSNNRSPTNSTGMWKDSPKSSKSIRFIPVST
Procedure: Binding Assay to Rat Hepatic V1 Receptors
Rat liver plasma membranes expressing the vasopressin V1 receptor subtypes are isolated by sucrose density gradient according to the method described by Lesko et al, (1973). These membranes are quickly suspended in 50.0 mM Tris.HCl buffer, pH 7.4, containing 0.2% bovine serum albumin (BSA) and 0.1 mM phenylmethylsulfonylfluoride (PMSF) and kept frozen at -70° C. until used in subsequent binding experiments. For binding experiments, the following is added to the wells of a ninety-six well format microtiter plate: 100 μl of 100.0 mM Tris.HCl buffer containing 10.0 mM MgCl2, 0.2% heat inactivated BSA and a mixture of protease inhibitors: leupeptin, 1.0 mg %; aprotinin, 1.0 mg %; 1,10-phenanthroline,2.0 mg %; trypsin inhibitor, 10.0 mg % and 0.1 mM PMSF, 20.0 μl of [phenylalanyl-3,4,5,-^3 H] vaso-pressin (S.A. 45.1 Ci/mmole) at 0.8 nM, and the reaction initiated by the addition of 80 μl of tissue membranes containing 20 μg of tissue protein. The plates are kept undisturbed on the bench top at room temperature for 120 min. to reach equilibrium. Non-specific samples are assayed in the presence of 0.1 μm of the unlabeled antagonist phenylalanylvasopressin, added in 20.0 μl volume. For test compounds, these are solubilized in 50% dimethylsulfoxide (DMSO) and added in 20.0 μl volume to a final incubation volume of 200 μl. Upon completion of binding, the content of each well is filtered off, using a Brandel® cell Harvester (Gaithersburg, Md.). The radioactivity trapped on the filter disk by the ligand-receptor complex is assessed by liquid scintillation counting in a Packard LS Counter, with an efficiency of 65% for tritium. The data are analyzed for IC50 values by the LUNDON-2 program for competition (LUNDON SOFTWARE, Ohio).

T1 sequence (Q00788 whole entry): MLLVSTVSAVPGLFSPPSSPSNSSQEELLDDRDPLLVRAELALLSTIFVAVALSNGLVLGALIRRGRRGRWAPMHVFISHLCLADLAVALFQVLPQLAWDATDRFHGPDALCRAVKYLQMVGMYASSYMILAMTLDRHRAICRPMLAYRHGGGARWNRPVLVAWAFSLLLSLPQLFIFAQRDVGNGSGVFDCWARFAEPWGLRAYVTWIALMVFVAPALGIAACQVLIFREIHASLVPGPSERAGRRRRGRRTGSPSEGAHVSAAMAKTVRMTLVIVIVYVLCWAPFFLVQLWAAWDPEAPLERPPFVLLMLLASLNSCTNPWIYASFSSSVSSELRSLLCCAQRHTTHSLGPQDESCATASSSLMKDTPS

SMILES | IC50 [1] | inhibition at 1 µM (oxytocin receptors; dose 1 μM) | IC50 (oxytocin receptors) | IC50 (Rat Hepatic V1 Receptors) | inhibition at 10 µM (oxytocin receptors; dose 10 μM) | inhibition at 1 µM [1] | also measured
O=C(Nc1ccc(C(=O)N2Cc3cccn3Cc3ccccc32)cn1)c1ccccc1Cl [Example 6] | 1.8 nM | 90% | 140 nM | 11 nM |  |  | 
O=C(Nc1ccc(C(=O)N2Cc3cccn3Cc3ccccc32)cn1)c1ccccc1Br [Example 8] | 1.6 nM | 89% | 150 nM | 7 nM |  |  | 
Cc1ccccc1C(=O)Nc1ncc(C(=O)N2Cc3cccn3Cc3ccccc32)cc1Br [Example 12] | 24 nM |  | 800 nM | 210 nM | 98% |  | 
O=C(Nc1ccc(C(=O)N2Cc3cccn3Cc3ccccc32)cn1)c1ccc([N+](=O)[O-])cc1Cl [Example 33] | 30 nM |  | 510 nM | 450 nM | 95% |  | 
Cc1ccc(F)cc1C(=O)Nc1ccc(C(=O)N2Cc3ccnn3Cc3ccccc32)cn1 [Example 208, N-[5-(4H-Pyrazolo[5,1-c][1,4]benzodiazepin-5(10H)-ylcarbonyl)-2-pyridinyl]-5-fluoro-2-methylbenzamide] | 11 nM |  | 730 nM | 87 nM | 95% |  | 
O=C(Nc1ccc(C(=O)N2Cc3ccnn3Cc3ccccc32)cn1)c1ccccc1-c1ccccc1 [Example 245] | 1 nM |  |  | 19 nM |  |  | 
O=C(c1ccc(NCC2CCCCC2)nc1)N1Cc2cccn2Cc2ccccc21 [Example 263] | 360 nM |  | 380 nM | 200 nM | 98% |  | 
Cc1ccccc1Nc1ccc(C(=O)N2Cc3cccn3Cc3ccccc32)cn1 [Example 301, 10,11-Dihydro-10-[[6-[(2-methylphenyl)amino]-3-pyridinyl]carbonyl]-5H-Pyrrolo[2,1-c][1,4]benzodiazepine] |  |  | 860 nM |  | 89% |  | inhibition at 10 µM [1]: 91%
O=C(Nc1ccc(C(=O)N2Cc3cccn3Cc3ccccc32)c(Cl)c1)c1ccccc1-c1ccccc1 [Example 319, N-[4-(5H-Pyrrolo[2,1-c][1,4]benzodiazepin-10(11H)-ylcarbonyl)-3-chlorophenyl][1,1'-biphenyl]-2-carboxamide] | 1.5 nM |  |  | 16 nM |  |  | 
O=C(Nc1ccc(C(=O)N2Cc3cccn3Cc3ccccc32)cc1)c1ccccc1-c1ccccc1 [Example 320, N-[4-(5H-Pyrrolo[2,1-c][1,4]benzodiazepin-10(11H)-ylcarbonyl)phenyl][1,1'-biphenyl]-2-carboxamide] | 2.6 nM |  |  | 3.4 nM |  |  | 
O=C(Nc1ccc(C(=O)N2Cc3cccn3Cc3ccccc32)cc1)c1ccccc1Cc1ccccc1 [Example 321, N-[4-(5H-Pyrrolo[2,1-c][1,4]benzodiazepine-10(11H)-ylcarbonyl)phenyl]-2-(phenylmethyl)benzamide] | 5.1 nM |  |  | 18 nM |  |  | 
O=C(Nc1ccc(C(=O)N2Cc3cccn3Cc3ccccc32)c(Cl)c1)c1ccccc1Cc1ccccc1 [Example 322, N-[4-(5H-Pyrrolo[2,1-c][1,4]benzodiazenin-10(11H)-ylcarbonyl)-3-chlorophenyl]-2-(phenylmethyl)benzamide] | 11 nM |  |  | 670 nM |  |  | 
O=C(Nc1ccc(C(=O)N2Cc3cccn3Cc3ccccc32)c(Cl)c1)c1ccccc1-c1ccc(C(F)(F)F)cc1 [Example 326] |  | 0% |  |  |  |  | inhibition at 10 µM [1]: 91%
Cc1ncccc1C(=O)Nc1ccc(C(=O)N2Cc3cccn3Cc3ccccc32)cn1 [Example 330, N-[5-(5H-Pyrrolo[2,1-c][1,4]benzodiazepin-10(11H)-ylcarbonyl]-2-pyridinyl]-2-methylpyridine-3-carboxamide Hydrochloride] |  |  |  |  |  | 79% | Oxytocin Binding Assay % Inhibition (oxytocin receptors; dose 10 μM, Hydrochloride): 93%; IC50 (oxytocin receptors; Hydrochloride): 990 nM
CN1CCN(c2ncccc2C(=O)Nc2ccc(C(=O)N3Cc4cccn4Cc4ccccc43)cc2)CC1 [Example 331, N-[4-(5H-Pyrrolo[2,1-c][1,4]benzodiazepin-10(11H)-ylcarbonyl)phenyl]-2-[N-methylpiperazinyl]-pyridine-3-carboxamide Hydrochloride] |  |  |  |  |  | 43% | Oxytocin Binding Assay % Inhibition (oxytocin receptors; dose 1 μM, Hydrochloride): 13%
CNc1ncccc1C(=O)Nc1ccc(C(=O)N2Cc3cccn3Cc3ccccc32)cc1 [Example 334, N-[4-(5H-Pyrrolo[2,1-c][1,4]benzodiazepin-10(11H)-ylcarbonyl)phenyl]-2-(methylamino)pyridine-3-carboxamide] |  | 5% |  |  |  | 79% | 
O=C(Nc1ccc(C(=O)N2Cc3cccn3Cc3ccccc32)cc1)c1cccnc1N1CCCCC1 [Example 336, N-[4-(5H-Pyrrolo[2,1-c][1,4]benzodiazepin-10(11H)-ylcarbonyl)phenyl]-2-(1-piperidinyl)-pyridine-3-carboxamide] |  |  | 1630 nM |  | 94% | 69% | 
O=C(Nc1ccc(C(=O)N2Cc3cccn3Cc3ccccc32)cc1)c1cccnc1N1CCOCC1 [Example 339, N-[4-(5H-Pyrrolo[2,1-c][1,4]benzodiazepin-10(11H)-ylcarbonyl)phenyl]-2-(morpholino)-pyridine-3-carboxamide] |  |  | 8560 nM |  | 48% | 55% | 
O=C(Nc1ccc(C(=O)N2Cc3cccn3Cc3ccccc32)cc1)c1cccnc1Oc1ccc(Cl)cc1 [Example 346, N-[4-(5H-Pyrrolo[2,1-c][1,4]benzodiazepin-10(11H)-ylcarbonyl)phenyl]-2-(4-chlorophenyloxy)pyridine-3-carboxamide] |  | 0% |  |  |  |  | inhibition at 10 µM [1]: 76%
COc1ccc(CNc2ccc(C(=O)N3Cc4cccn4Cc4ccccc43)cn2)c(OC)c1 [Example 351] |  | 0% |  |  |  | 56% | 
Cc1occc1C(=O)Nc1ccc(C(=O)N2Cc3cccn3Cc3ccccc32)cn1 [Example 353, N-[5-(5H-Pyrrolo[2,1-c][1,4]benzodiazepine-10(11H)-ylcarbonyl)-2-pyridinyl]-2-methylfurane-3-carboxamide] |  |  | 2050 nM |  | 83% | 86% | 
Nc1ccccc1C(=O)Nc1ccc(C(=O)N2Cc3cccn3Cc3ccccc32)cn1 [Example 354, N-[5-(5H-Pyrrolo[2,1-c][1,4]benzodiazepin-10(11H)-ylcarbonyl)-2-pyridinyl]-2-aminobenzamide] |  | 7% |  |  |  | 86% | 

— patent US5753648A, “Tricyclic benzazepine vasopressin antagonists” (American Cyanamid Company, priority 1996, dated 1998)
